For five molecules, IC50 and fraction unbound results are on record in patent EP4692094A1 (Beijing Konruns Pharmaceutical Co., Ltd., priority 2023, dated 2024).

In data set [1] the target is T1, KAT6B (Homo sapiens, UniProt Q8WYB5).
T1 construct: purchased active motife (Active Motif) 81224
Put plainly: Enzymatic activity assay for KAT6B acetyltransferase (TR-FRET, histone substrate H3). The data set is classed as biochemical. The settings on record: KAT6B 3 nM, Bio-H3 400 nM, AcCOA 2 µM. As to the method:
The acetylation effects of KAT6B on histone substrate H3, as well as KAT5, KAT7, and KAT8 on histone substrate H4, were determined using the TR-FRET (time-resolved fluorescence resonance energy transfer) method. The determination was performed according to experimental procedures similar to those in "Pharmacological Experiment I": 1.2 Preparation of compounds: The compounds prepared in the examples were each dissolved in dimethylsulfoxide to give solutions at a concentration of 10 mmol/L. • 1) The compounds in the examples were each diluted from 10 mmol/L stock solution to 0.2 mmol/L, i.e., 1 µL of the compound was added to 49 µL of DMSO, and 3-fold dilution was performed to give 10 concentrations. • 2) 50 nL of the test compounds were transferred to 384 reaction plates using Echo, two replicates for each compound, and the plates were centrifuged at a rotation speed of 1000 rpm for 1 min, the final concentration of dimethylsulfoxide (DMSO) being 0.5%. […]
For KAT8: • 3) 2.5 µL of the KAT8 enzyme solution at a final concentration of 10 nM was added to the 384 reaction plates in step 2), and the plates were centrifuged at 1000 rpm for 1 min and incubated at 25 °C for 10 min. • 4) 2.5 µL of […] at a final concentration of 300 nM and an AcCOA (acetyl-CoA) reaction solution at a final concentration of 2 µM were added to the 384 reaction plates in step 3), and the plates were centrifuged at a rotation speed of 1000 rpm for 1 min and incubated at 25 °C for 90 min. • 5) 5 µL of Eu-Ab& Ulight-SA detection solution was separately added to the 384 reaction plates in step 4) of the 4 groups described above, and the plates were centrifuged at 1000 rpm for 1 min and incubated at 25 °C for 60 min. • 6) The HTRF […] signals were read using a BMG high-throughput drug-screening multi-mode microplate reader.
The acetylation levels of the histones in the groups were analyzed by the GraphPad Prism 8 software. […]

Data set [2] is described as follows: Assay for plasma protein binding rate (equilibrium dialysis), dog plasma. The settings on record: dialysis 6 h at 37 °C, read-out: Dog (Fu%). The data set is classed as in vitro ADME. Here is the method: 1.1 Preparation of compounds: The compounds prepared in the examples were each dissolved in dimethylsulfoxide to give solutions at a concentration of 10 mmol/L. • 1) The example compounds were each diluted from 10 mmol/L stock solution to 0.2 mmol/L, i.e., 1 µL of the compound was added to 49 µL of DMSO; • 2) 3 µL of 0.2 mmol/L test compounds were added to 597 µL of blood plasma, and the mixtures were vortexed at 1000 rpm for 2 min; • 3) 50 µL of the plasma containing the drug in 2) was taken, 50 µL of PBS was added, and 300 µL of methanol internal standard* was added to serve as a sample T0; • 4) 120 µL of the plasma containing the drug in 2) was taken and added to one side of an HTD device membrane, and 120 µL of PBS was added to the other side of the membrane; a breathable film was covered, and the plasma and the residual sample in 2) were balanced at 37 °C (100 rpm and 5% CO2) for 6 h; • 5) 50 µL of the dialyzed plasma side sample was taken, 50 µL of PBS was added, and 300 µL of methanol internal standard* was added to serve as a sample P; • 6) 50 µL of the dialyzed PBS side sample was taken, 50 µL of blank plasma was added, and 300 µL of methanol internal standard* was added to serve as a sample B; • 7) 50 µL of the plasma containing the drug in 2) was taken, 50 µL of PBS was added, and 300 µL of methanol internal standard* was added to serve as a sample T6; • 8) All samples were vortexed, mixed homogeneously, and then centrifuged at 3220 g for 40 min at 4 °C; • 9) 100 µL of the supernatant and 100 µL of purified water were mixed homogenously for liquid chromatography-mass spectrometry.
An internal standard method was used, and the plasma protein binding rate, recovery rate, and residual percentage were calculated by using Excel according to the ratio of the peak area of the sample to the peak area of the internal standard. Free rate(%) = (RatioB)/(RatioP) × 100% [formula] Binding rate(%) = 100%−Free rate% [formula] Recovery rate(%) = (RatioB + RatioP)/(RatioT0) × 100% [formula] Remaining percentage(%) = (RatioT6)/(RatioT0) × 100% [formula]
RatioB: a ratio of the peak area of the test substance on the PBS side to the peak area of the internal standard; RatioP: a ratio of the peak area of the test substance on the plasma side to the peak area of the internal standard; RatioT6: a ratio of the peak area of the sample after incubation with the test substance for 6 h to the peak area of the internal standard; RatioT0: a ratio of the peak area of the sample after incubation with the test substance for 0 h to the peak area of the internal standard. Table 8. Plasma protein binding rate (Fu%) data for various species of example compounds

T1 sequence (Q8WYB5 whole entry): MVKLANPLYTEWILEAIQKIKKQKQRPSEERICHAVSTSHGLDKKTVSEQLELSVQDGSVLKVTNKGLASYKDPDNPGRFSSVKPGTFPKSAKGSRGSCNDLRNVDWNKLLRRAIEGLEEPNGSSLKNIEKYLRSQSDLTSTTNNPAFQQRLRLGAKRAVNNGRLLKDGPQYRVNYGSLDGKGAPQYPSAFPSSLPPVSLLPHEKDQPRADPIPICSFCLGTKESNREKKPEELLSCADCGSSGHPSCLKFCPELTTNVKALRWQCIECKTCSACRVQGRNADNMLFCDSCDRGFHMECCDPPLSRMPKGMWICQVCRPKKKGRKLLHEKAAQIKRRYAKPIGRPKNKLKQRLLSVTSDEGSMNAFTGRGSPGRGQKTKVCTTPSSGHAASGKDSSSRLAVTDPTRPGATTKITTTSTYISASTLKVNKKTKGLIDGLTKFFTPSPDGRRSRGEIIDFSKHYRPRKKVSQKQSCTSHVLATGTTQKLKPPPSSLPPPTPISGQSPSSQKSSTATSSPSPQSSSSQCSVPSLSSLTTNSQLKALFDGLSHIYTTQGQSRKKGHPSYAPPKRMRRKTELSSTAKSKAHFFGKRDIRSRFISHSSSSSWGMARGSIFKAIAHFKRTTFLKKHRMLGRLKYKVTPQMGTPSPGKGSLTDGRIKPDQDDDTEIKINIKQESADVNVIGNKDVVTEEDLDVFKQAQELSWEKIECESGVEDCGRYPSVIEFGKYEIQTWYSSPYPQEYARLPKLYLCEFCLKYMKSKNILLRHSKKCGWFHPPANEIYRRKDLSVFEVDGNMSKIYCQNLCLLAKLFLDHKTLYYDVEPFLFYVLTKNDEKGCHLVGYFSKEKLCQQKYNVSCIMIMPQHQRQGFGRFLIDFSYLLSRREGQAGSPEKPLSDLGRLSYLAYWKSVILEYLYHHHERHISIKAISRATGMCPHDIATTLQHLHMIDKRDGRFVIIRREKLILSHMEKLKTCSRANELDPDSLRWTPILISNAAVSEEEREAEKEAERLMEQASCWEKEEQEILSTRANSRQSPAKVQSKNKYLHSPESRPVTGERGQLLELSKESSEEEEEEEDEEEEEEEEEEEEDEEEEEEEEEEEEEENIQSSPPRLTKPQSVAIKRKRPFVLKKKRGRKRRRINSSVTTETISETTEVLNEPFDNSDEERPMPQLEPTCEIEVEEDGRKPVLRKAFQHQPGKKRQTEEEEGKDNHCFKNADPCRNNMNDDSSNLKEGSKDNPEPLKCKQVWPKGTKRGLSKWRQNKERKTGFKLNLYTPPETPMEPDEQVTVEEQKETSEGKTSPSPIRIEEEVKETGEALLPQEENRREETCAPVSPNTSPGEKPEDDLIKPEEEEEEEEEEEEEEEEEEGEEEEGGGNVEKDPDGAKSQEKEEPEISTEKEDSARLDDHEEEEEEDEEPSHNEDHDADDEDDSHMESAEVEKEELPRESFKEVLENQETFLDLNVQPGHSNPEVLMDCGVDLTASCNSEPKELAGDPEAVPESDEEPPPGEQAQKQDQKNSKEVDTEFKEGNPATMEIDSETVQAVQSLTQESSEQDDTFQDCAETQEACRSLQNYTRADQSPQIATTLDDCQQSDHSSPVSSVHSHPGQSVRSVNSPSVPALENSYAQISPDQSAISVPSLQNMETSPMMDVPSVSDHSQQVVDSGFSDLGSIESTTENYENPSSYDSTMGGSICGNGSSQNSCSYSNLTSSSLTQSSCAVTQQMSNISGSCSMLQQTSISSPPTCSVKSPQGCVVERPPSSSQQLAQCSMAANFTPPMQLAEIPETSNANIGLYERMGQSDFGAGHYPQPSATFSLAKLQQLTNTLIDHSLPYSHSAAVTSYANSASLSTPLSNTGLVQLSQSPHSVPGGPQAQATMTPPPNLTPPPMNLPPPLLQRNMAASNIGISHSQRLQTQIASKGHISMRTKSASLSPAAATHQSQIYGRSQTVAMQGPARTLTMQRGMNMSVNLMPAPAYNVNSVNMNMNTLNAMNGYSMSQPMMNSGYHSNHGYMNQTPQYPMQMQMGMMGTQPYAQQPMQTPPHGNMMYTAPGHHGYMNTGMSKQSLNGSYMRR

The molecule `COc1cc2c(cc1S(=O)(=O)Nc1noc3cc(Cn4cccn4)nc(OC)c13)OCC2` [Example 59, N-(6-((1H-Pyrazol-1-yl)methyl)-4-methoxyisoxazolo[4,5-c]pyridin-3-yl)-5-methoxy-2,3-dihydrobenzofuran-6-sulfonamide] had an IC50 in data set [1] of 9.5 nM. In data set [2], the fraction unbound at 6 h, 1 µM worked out at 0.0143.

For `COc1ccc2c(c1S(=O)(=O)Nc1noc3cc(Cn4cccn4)nc(OC)c13)OCC2` [Example 9, N-(6-((1H-Pyrazol-1-yl)methyl)-4-methoxyisoxazolo[4,5-c]pyridin-3-yl)-6-methoxy-2,3-dihydrobenzofuran-7-sulfonamide], the fraction unbound at 6 h, 1 µM in data set [2] is 0.025.

`COc1cc2c(cc1S(=O)(=O)Nc1noc3cc(Cn4cccn4)nc(OC)c13)CCCO2` [Example 76, N-(6-((1H-Pyrazol-1-yl)methyl)-4-methoxyisoxazolo[4,5-c]pyridin-3-yl)-7-methoxy-3,4-dihydro-1H-benzopyran-6-sulfonamide]: the fraction unbound at 6 h, 1 µM in data set [2] was found to be 0.0065.

As for `COc1ccc2ccoc2c1S(=O)(=O)Nc1noc2cc(Cn3cccn3)nc(OC)c12` [Example 10, N-(6-((1H-Pyrazol-1-yl)methyl)-4-methoxyisoxazolo[4,5-c]pyridin-3-yl)-6-methoxybenzofuran-7-sulfonamide], the IC50 in data set [1] was 1.78 nM. Further, the fraction unbound at 6 h, 1 µM in data set [2] is 0.0145.

On to `COc1cc2c(cc1S(=O)(=O)Nc1noc3cc(Cn4cccn4)nc(OC)c13)CCCC2` [Example 2, N-(6-((1H-Pyrazol-1-yl)methyl)-4-methoxyisoxazolo[4,5-c]pyridin-3-yl)-3-methoxy-5,6,7,8-tetrahydronaphthalene-2-sulfonamide], for which half-maximal inhibition in data set [1] (IC50) was put at 2.34 nM. Besides, the fraction unbound at 6 h, 1 µM in data set [2] was determined as 0.0013.
